Patent US20250340538A1, “IMIDAZOLONE DERIVATIVES AS INHIBITORS OF PROTEIN KINASES IN PARTICULAR DYRK1A, CLK1 AND/OR CLK4” (PERHA PHARMACEUTICALS, priority 2021, published 2025)

Legend:
DYRK1A = molecular target: T1, DYRK1A (Homo sapiens, UniProt Q13627); assay: Radiometric protein kinase assay (33PanQinase Activity Assay), DYRK1A; type: biochemical; details: for IC50: class by IC50 on DYRK1A, from dose-response curves, read-out: Potency Class DYRK1A; for Selectivity Class DYRK1A vs. CLK1: ratio of IC50 on CLK1 over IC50 on DYRK1A; for Selectivity Class DYRK1A vs. DYRK1B: ratio of IC50 on DYRK1B over IC50 on DYRK1A
T1 construct: GST-fusion or His-tag (not specified per kinase); purchased ProQinase GmbH; host or cells: Sf9 insect cells or E. coli (not specified per kinase)
Method: The IC50 profile of all compounds was determined using 12 protein kinases (CDK2/cyclin E, CK1ε, CLK1, 2, 3, 4, DYRK1A, 1B, 2, 3, 4, GSK3β).
(§1) The compounds were provided as […] in 100% DMSO. Prior to testing, the 1 μM stock solutions were subjected to a serial, semi-logarithmic dilution using 100% DMSO as a solvent. […] In the process, 90 μl H2O were added to each well of each compound dilution plate. To minimize potential precipitation, the H2O was added to each plate only a few minutes before the transfer of the compound solutions into the assay plates. The plate was shaken thoroughly, resulting in a compound dilution plate/10% DMSO.
(§2) For the assays (see below), 5 μL solution from each well of the compound dilution plates/10% DMSO were transferred into the assay plates. The final volume of the assay was 50 μL. All compounds were tested at 10 final assay concentrations in the range from 10 μM to 30 nM. The final DMSO concentration in the reaction cocktails was 1% in all cases.
(§3) All protein kinases provided by ProQinase were expressed in Sf9 insect cells or in E. coli as recombinant GST-fusion proteins or His-tagged proteins, either as full-length or enzymatically active fragments. All kinases were produced from human cDNAs and purified by either GSH-affinity chromatography or immobilized metal. Affinity tags were removed from a number of kinases during purification. The purity of the protein kinases was examined by SDS-PAGE/Coomassie staining, the identity was checked by mass spectroscopy.
(§4) A radiometric protein kinase assay (33PanQinase® Activity Assay) was used for measuring the kinase activity of the 12 protein kinases. All kinase assays were performed in 96-well FlashPlates™ from PerkinElmer (Boston, MA, USA) in a 50 μL reaction volume. The reaction cocktail was pipetted in four steps in the following order: • 25 μL of assay buffer (standard buffer/[γ-^33P]-ATP), • 10 μL of ATP solution (in H2O), • 5 μL of test compound (in 10% DMSO), • 10 μL of enzyme/substrate mixture.
(§5) The reaction cocktails were incubated at 30° C. for 60 minutes. The reaction was stopped with 50 μL of 2% (v/v) H3PO4, plates were aspirated and washed two times with 200 μL 0.9% (w/v) NaCl. Incorporation of ^33Pi was determined with a microplate scintillation counter (Microbeta, Wallac). The IC50 values for all compounds were calculated from the dose response curves

CLK1 = molecular target: T2, CLK1 (Homo sapiens, UniProt P49759); assay: Radiometric protein kinase assay (33PanQinase Activity Assay), CLK1; type: biochemical; details: class by IC50 on CLK1, from dose-response curves; read-out: Potency Class CLK1
T2 construct: GST-fusion or His-tag (not specified per kinase); purchased ProQinase GmbH; host or cells: Sf9 insect cells or E. coli (not specified per kinase)
T2 sequence (P49759 whole entry, the tested form may be a part): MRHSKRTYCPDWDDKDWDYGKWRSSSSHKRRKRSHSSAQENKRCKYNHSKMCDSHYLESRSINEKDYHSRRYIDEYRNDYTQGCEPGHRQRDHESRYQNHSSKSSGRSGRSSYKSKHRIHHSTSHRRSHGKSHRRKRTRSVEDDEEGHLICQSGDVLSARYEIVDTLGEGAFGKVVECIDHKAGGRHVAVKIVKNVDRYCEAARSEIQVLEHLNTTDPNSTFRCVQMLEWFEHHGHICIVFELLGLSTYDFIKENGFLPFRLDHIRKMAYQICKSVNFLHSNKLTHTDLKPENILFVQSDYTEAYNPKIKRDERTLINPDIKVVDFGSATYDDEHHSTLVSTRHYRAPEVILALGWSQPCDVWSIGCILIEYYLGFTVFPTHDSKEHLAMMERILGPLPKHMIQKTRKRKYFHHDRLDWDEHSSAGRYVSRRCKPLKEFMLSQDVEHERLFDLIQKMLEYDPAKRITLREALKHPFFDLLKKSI
Method: Assays were performed by ProQinase GmbH (Engesserstr. 4, D-79108 Freiburg, Germany. www.proqinase.com). The IC50 profile of all compounds was determined using 12 protein kinases (CDK2/cyclin E, CK1ε, CLK1, 2, 3, 4, DYRK1A, 1B, 2, 3, 4, GSK3β).
as §1, §2, §3, §4, §5
As a parameter for assay quality, the Z′-factor (Zhang et al., J. Biomol. Screen. 2: 67-73, 1999) for the low and high controls of each assay plate (n=8) was used. ProQinase's criterion for repetition of an assay plate is a Z′-factor below 0.4 (Iversen et al., J. Biomol. Screen. 3: 247-252, 2006).

Structure (SMILES)	IC50 (DYRK1A) [nM]	Selectivity Class DYRK1A vs. CLK1 (DYRK1A)	Selectivity Class DYRK1A vs. DYRK1B (DYRK1A)	IC50 (CLK1) [nM]
O=C1NC(NCC2CCCCC2)=N/C1=C\c1ccc2ncccc2c1 [Compound 45, (4Z)-2-(Cyclohexylmethylamino)-4-(6-quinolylmethylene)-1H-imidazol-5-one]	> 50	IV (ratio between 0.1 and 0.5 fold)	II (ratio between 2 and 10 fold)	> 50
CC(C)C[C@H](CO)NC1=N/C(=C\c2ccc3ncccc3c2)C(=O)N1 [Compound 46, (4Z)-2-[[(1R)-1-(hydroxymethyl)-3-methyl-butyl]amino]-4-(6-quinolylmethylene)-1H-imidazol-5-one]	10 to 25	II (ratio between 2 and 10 fold)	II (ratio between 2 and 10 fold)	> 50
COC[C@@H](CC(C)C)NC1=N/C(=C\c2ccc3ncccc3c2)C(=O)N1 [Compound 47, (4Z)-2-[[(1R)-1-(methoxymethyl)-3-methyl-butyl]amino]-4-(6-quinolylmethylene)-1H-imidazol-5-one]	25 to 50	II (ratio between 2 and 10 fold)	II (ratio between 2 and 10 fold)	> 50
O=C1NC(NCc2ccccc2)=N/C1=C\c1ccc2ncccc2c1 [Compound 51]	> 50	IV (ratio between 0.1 and 0.5 fold)	II (ratio between 2 and 10 fold)	> 50
COC[C@H](NC1=N/C(=C\c2ccc3ncccc3c2)C(=O)N1)c1ccccc1 [Compound 52, (4Z)-2-[[(1R)-2-methoxy-1-phenyl-ethyl]amino]-4-(6-quinolylmethylene)-1H-imidazol-5-one]	> 50	III (ratio between 0.5 and 2 fold)	II (ratio between 2 and 10 fold)	> 50
Cc1cnc(CNC2=N/C(=C\c3ccc4ncccc4c3)C(=O)N2)cn1 [Compound 53, (4Z)-2-[(5-Methylpyrazin-2-yl)methylamino]-4-(6-quinolylmethylene)-1H-imidazol-5-one]	> 50	IV (ratio between 0.1 and 0.5 fold)	III (ratio between 0.5 and 2 fold)	> 50
Cn1ccc(NC2=N/C(=C\c3ccc4ncccc4c3)C(=O)N2)n1 [Compound 54, (4Z)-2-[(1-methylpyrazol-3-yl)amino]-4-(6-quinolylmethylene)-1H-imidazol-5-one]	> 50	III (ratio between 0.5 and 2 fold)	II (ratio between 2 and 10 fold)	> 50
O=C1NC(N[C@@H]2CCOC2)=N/C1=C\c1ccc2ncccc2c1 [Compound 55, (4Z)-4-(6-Quinolylmethylene)-2-[[(3R)-tetrahydrofuran-3-yl]amino]-1H-imidazol-5-one]	> 50	III (ratio between 0.5 and 2 fold)	III (ratio between 0.5 and 2 fold)	> 50
O=C1NC(N[C@@H]2CCCOC2)=N/C1=C\c1ccc2ncccc2c1 [Compound 56, (4Z)-4-(6-quinolylmethylene)-2-[[(3R)-tetrahydropyran-3-yl]amino]-1H-imidazol-5-one]	> 50	III (ratio between 0.5 and 2 fold)	II (ratio between 2 and 10 fold)	> 50
O=C1NC(NC2CCCCCC2)=N/C1=C\c1ccc2cnccc2c1 [Compound 57, (4Z)-2-(cycloheptylamino)-4-(6-isoquinolylmethylene)-1H-imidazol-5-one]	> 50	III (ratio between 0.5 and 2 fold)	III (ratio between 0.5 and 2 fold)	> 50
O=C1NC(NCC2CCCCC2)=N/C1=C\c1ccc2cnccc2c1 [Compound 58, (4Z)-2-(Cyclohexylmethylamino)-4-(6-isoquinolylmethylene)-1H-imidazol-5-one]	> 50	IV (ratio between 0.1 and 0.5 fold)	III (ratio between 0.5 and 2 fold)	> 50
CC(C)C[C@H](CO)NC1=N/C(=C\c2ccc3cnccc3c2)C(=O)N1 [Compound 59, (4Z)-2-[[(1R)-1-(hydroxymethyl)-3-methyl-butyl]amino]-4-(6-isoquinolylmethylene)-1H-imidazol-5-one]	> 50	III (ratio between 0.5 and 2 fold)	III (ratio between 0.5 and 2 fold)	> 50
COC[C@@H](CC(C)C)NC1=N/C(=C\c2ccc3cnccc3c2)C(=O)N1 [Compound 60, (4Z)-4-(6-isoquinolylmethylene)-2-[[(1R)-1-(methoxymethyl)-3-methyl-butyl]amino]-1H-imidazol-5-one]	> 50	II (ratio between 2 and 10 fold)	III (ratio between 0.5 and 2 fold)	> 50
O=C1NC(NCc2ccccc2)=N/C1=C\c1ccc2cnccc2c1 [Compound 62, (4Z)-2-(benzylamino)-4-(6-isoquinolylmethylene)-1H-imidazol-5-one]	> 50	V (ratio >0.1 fold (most CLK1- or DYRK1B-selective compounds))	IV (ratio between 0.1 and 0.5 fold)	> 50
COC[C@H](NC1=N/C(=C\c2ccc3cnccc3c2)C(=O)N1)c1ccccc1 [Compound 63, (4Z)-4-(6-isoquinolylmethylene)-2-[[(1R)-2-methoxy-1-phenyl-ethyl]amino]-1H-imidazol-5-one]	> 50	IV (ratio between 0.1 and 0.5 fold)	III (ratio between 0.5 and 2 fold)	> 50
Cc1cnc(CNC2=N/C(=C\c3ccc4cnccc4c3)C(=O)N2)cn1 [Compound 64, (4Z)-4-(6-Isoquinolylmethylene)-2-[(5-methylpyrazin-2-yl)methylamino]-1H-imidazol-5-one]	> 50	III (ratio between 0.5 and 2 fold)	IV (ratio between 0.1 and 0.5 fold)	> 50
Cn1ccc(NC2=N/C(=C\c3ccc4cnccc4c3)C(=O)N2)n1 [Compound 65, (4Z)-4-(6-Isoquinolylmethylene)-2-[(1-methylpyrazol-3-yl)amino]-1H-imidazol-5-one]	> 50	IV (ratio between 0.1 and 0.5 fold)	III (ratio between 0.5 and 2 fold)	> 50
O=C1NC(N[C@@H]2CCOC2)=N/C1=C\c1ccc2cnccc2c1 [Compound 66, (4Z)-4-(6-Isoquinolylmethylene)-2-[[(3R)-tetrahydrofuran-3-yl]amino]-1H-imidazol-5-one]	> 50	III (ratio between 0.5 and 2 fold)	IV (ratio between 0.1 and 0.5 fold)	> 50
O=C1NC(N[C@@H]2CCCOC2)=N/C1=C\c1ccc2cnccc2c1 [Compound 67, (4Z)-4-(6-isoquinolylmethylene)-2-[[(3R)-tetrahydropyran-3-yl]amino]-1H-imidazol-5-one]	> 50	III (ratio between 0.5 and 2 fold)	III (ratio between 0.5 and 2 fold)	> 50
